Like-named read-outs stand apart in the source and are kept apart here.
How the values were obtained:
[1] = test system: SMN protein in spinal muscular atrophy (SMA) patient fibroblasts (GM03813, Coriell); experiment: SMN protein assay, Mesoscale Discovery (MSD); type: cell-based, human; settings: read-out: SMN2 protein EC50
Method: Example A12: SMN Protein Assay
Compounds are tested on spinal muscular atrophy (SMA) patient fibroblasts (GM03813, Coriell) at doses ranging from 2.5 μM to 0.6 nM. 7000 cells/well are seeded in 96-well plates. Compounds are incubated for 48 hours and the cells were lysed with 100 μL of lysis buffer. 20 μL of lysate is used for SMN protein measurement by Mesoscale Discovery (MSD) assay developed by PharmOptima (Michigan). A standard curve prepared with SMN protein ranging from 1 μg/ml to 19.5 pg/ml is used in each MSD plate to calculate the absolute SMN protein amount in each sample.

[2] = test system: MDR1-MDCK cell monolayers; experiment: Blood-brain-barrier (BBB) penetration potential via MDCK-MDR1 permeability assay
[3] = test system: MDR1 (P-gp); experiment: as above; settings: dog; for Papp A→B at 120 min, 5 μM: MDCK-MDR1, pH 7.4, MDCK-MDR1: Papp A-B; for Papp B→A at 120 min, 5 μM: MDCK-MDR1, pH 7.4, MDCK-MDR1: Papp B-A; for efflux ratio at 120 min, 5 μM: MDCK-MDR1, pH 7.4, MDCK-MDR1: Efflux
[4] = test system: MDR1; experiment: as above; settings: dog, MDCK-MDR1, pH 7.4, MDCK-MDR1: Efflux
[5] = test system: mHTT protein in GM04724 (CAG 70/20) Huntington's disease patient lymphoblast cells; experiment: mHTT protein assay, 2B7-MW1 assay via Mesoscale Discovery (MSD); type: cell-based, human
Method: Example A10: mHTT Protein Assay
Compounds are tested on GM04724 (CAG 70/20) Huntington's disease patient lymphoblast cells at doses ranging from 10 μM to 0.6 nM. 4,500 cells/well are seeded in 384 well plates. One plate replica is carried out for parallel viability testing by CellTiter Glo (CTG). Compounds are incubated for 48 hours. mHTT protein levels are assessed by the 2B7-MW1 assay via Mesoscale Discovery (MSD) as previously reported (Macdonald et al., 2014). The antibody pair is comprised of previously characterized monoclonals (2B7 and MW1) interrogating two regions for HTT conformation and biological properties: the N, 17 domain and the polyQ domain (Baldo et al., 2012; Ko et., 2001). 2B7-MW1 is […] specific levels of HTT at the time of treatment. 2B7-MW1 is dependent on polyQ expansion (e.g., the higher the expansion the higher the signal) and on mHTT size (e.g., a similar polyQ will give higher signal with smaller HTT size). The viability readout is carried out by CTG according to the manufacturer's instructions.

[6] = SMA patient fibroblasts GM03813, 48 hours, MSD
[7] = GM04724 Huntington's disease patient lymphoblasts
[8] = SMA patient fibroblasts (GM03813), 48 hours
[9] = GM04724 (CAG 70/20) Huntington's disease patient lymphoblasts

| Structure (SMILES) | EC50 [1, 6] [nM] | MDCK-MDR1: % Recov A-B ([2]; A-B direction) [%] | MDCK-MDR1: % Recov B-A ([2]; B-A direction) [%] | Papp A→B at 120 min, 5 μM ([3]; A-B direction) [×10⁻⁶ cm/s] | Papp B→A at 120 min, 5 μM ([3]; B-A direction) [×10⁻⁶ cm/s] | efflux ratio at 120 min, 5 μM ([4]; efflux ratio) | EC50 [5, 7] [nM] | efflux ratio at 120 min, 5 μM ([3]; efflux ratio) | EC50 [1, 8] [nM] | MDCK-MDR1: % Recov A-B ([2]; A-B) [%] | MDCK-MDR1: % Recov B-A ([2]; B-A) [%] | Papp A→B at 120 min, 5 μM ([3]; A-B) [×10⁻⁶ cm/s] | Papp B→A at 120 min, 5 μM ([3]; B-A) [×10⁻⁶ cm/s] | efflux ratio at 120 min, 5 μM [4] | mHTT protein EC50 [5, 9] | efflux ratio at 120 min, 5 μM [3] | EC50 [5, 9] [nM] |
| --- | --- | --- | --- | --- | --- | --- | --- | --- | --- | --- | --- | --- | --- | --- | --- | --- | --- |
| CN(c1ccc(-c2ccc(-n3cnc(Cl)c3)cc2O)nn1)[C@H]1C[C@@H]2CC(F)(F)[C@H](C1)N2 [Compound 37B, 5-(4-chloro-1H-imidazol-1-yl)-2-(6-(((1R,3S,5S)-6,6-difluoro-8-azabicyclo[3.2.1]octan-3-yl)(methyl)amino)pyridazin-3-yl)phenol] | 101 to 500 | 54 | 70 | 19 | 32.7 | 2 | 51 to 100 | – | – | – | – | – | – | – | – | – | – |
| CN(c1ccc(-c2ccc(C#N)cc2O)nn1)[C@H]1C[C@@H]2CCC[C@@H](N2)[C@H]1F [Compound 39B, 4-(6-(((1R,2R,3S,5S)-2-fluoro-9-azabicyclo[3.3.1]nonan-3-yl)(methyl)amino)pyridazin-3-yl)-3-hydroxybenzonitrile] | 16 to 50 | 96 | 86 | 4.57 | 40.6 | 9 | 101 to 500 | – | – | – | – | – | – | – | – | – | – |
| Cc1cnc(-c2ccc(-c3ccc(N(C)[C@@H]4C[C@H]5CCC[C@H](N5)[C@@H]4F)nn3)c(O)c2)cn1 [Compound 26A, 2-(6-(((1S,2S,3R,5R)-2-fluoro-9-azabicyclo[3.3.1]nonan-3-yl)(methyl)amino)pyridazin-3-yl)-5-(5-methylpyrazin-2-yl)phenol] | 51 to 100 | 65 | 77 | 2.09 | 43.6 | 21 | 101 to 500 | – | – | – | – | – | – | – | – | – | – |
| CN(c1ccc(-c2cc3cnccc3cc2O)nn1)[C@H]1C[C@@H]2CC[C@H]([C@H]1F)N2C [Compound 93B, 7-(6-(((1R,2R,3S,5S)-2-fluoro-8-methyl-8-azabicyclo[3.2.1]octan-3-yl)(methyl)amino)pyridazin-3-yl)isoquinolin-6-ol] | 51 to 100 | 45 | 63 | 5.39 | 22.3 | 4 | 101 to 500 | – | – | – | – | – | – | – | – | – | – |
| CC#Cc1ccc(-c2ccc(N(C)C3CC4CCC(N4)C3F)nn2)c(O)c1 (single isomer, unassigned) [Compound 30B] | 101 to 500 | 38 | 69 | 10.6 | 11 | – | 51 to 100 | 1 | – | – | – | – | – | – | – | – | – |
| CN(c1ccc(-c2ccc(-c3cnn(C)c3)cc2O)nn1)[C@@H]1C[C@H]2CCC[C@H](N2)[C@@H]1F [Compound 15A, 2-(6-(((1S,2S,3R,5R)-2-fluoro-9-azabicyclo[3.3.1]nonan-3-yl)(methyl)amino)pyridazin-3-yl)-5-(1-methyl-1H-pyrazol-4-yl)phenol] | 0.01 to 15 | 61 | 70 | 2.76 | 34.4 | 12 | 0.01 to 15 | – | – | – | – | – | – | – | – | – | – |
| Cc1nc2cc(-c3ccc(N(C)[C@@H]4C[C@H]5CC[C@H](N5)[C@@H]4F)nn3)c(O)cc2c(=O)n1CC(F)(F)F [Compound 113A, 7-(6-(((1S,2S,3R,5R)-2-fluoro-8-azabicyclo[3.2.1]octan-3-yl)(methyl)amino)pyridazin-3-yl)-6-hydroxy-2-methyl-3-(2,2,2-trifluoroethyl)quinazolin-4(3H)-one] | – | – | – | – | – | – | – | – | 0.01 to 15 | 96 | 99 | 0.2 | 66.9 | 333 | E (501 ≤ E ≤ 10.000) | – | – |
| CN(c1ccc(-c2ccc(-c3cnn(C(F)F)c3)cc2O)nn1)[C@H]1C[C@@H]2CCC[C@@H](N2)[C@H]1F [Compound 21B] | 0.01 to 15 | 39 | 68 | 1.73 | 30.4 | 18 | 16 to 50 | – | – | – | – | – | – | – | – | – | – |
| CN(c1ccc(-c2cc3ccncc3cc2O)nn1)[C@@H]1C[C@H]2CC(F)(F)[C@@H](C1)N2 [Compound 125A, 6-(6-(((1S,3R,5R)-6,6-difluoro-8-azabicyclo[3.2.1]octan-3-yl)(methyl)amino)pyridazin-3-yl)isoquinolin-7-ol] | – | – | – | – | – | – | – | – | 51 to 100 | 63 | 87 | 14.1 | 43.3 | – | – | 3 | 101 to 500 |
| CN(c1ccc(-c2cc3ncn(C)c(=O)c3cc2O)nn1)[C@@H]1C[C@H]2CC[C@@H]([C@@H]1F)N2C [Compound 101A, 7-(6-(((1S,2S,3R,5R)-2-fluoro-8-methyl-8-azabicyclo[3.2.1]octan-3-yl)(methyl)amino)pyridazin-3-yl)-6-hydroxy-3-methylquinazolin-4(3H)-one] | – | – | – | – | – | – | – | – | 51 to 100 | 101 | 109 | 2.81 | 72.6 | 26 | – | – | 101 to 500 |
| CN(c1ccc(-c2ccc(-c3cnn(C)c3)cc2O)nn1)[C@H]1C[C@H]2CC(F)(F)[C@H](C1)N2 (single isomer, unassigned) [Compound 3B] | 101 to 500 | 80 | 71 | 16.3 | 22.7 | – | 51 to 100 | 1 | – | – | – | – | – | – | – | – | – |
| Cc1cnc(-c2ccc(-c3ccc(N(C)[C@@H]4C[C@H]5CC[C@H](N5)[C@@H]4F)nn3)c(O)c2)o1 [Compound 48A, 2-(6-(((1S,2S,3R,5R)-2-fluoro-8-azabicyclo[3.2.1]octan-3-yl)(methyl)amino)pyridazin-3-yl)-5-(5-methyloxazol-2-yl)phenol] | 0.01 to 15 | 58 | 76 | 3.71 | 29 | 8 | 51 to 100 | – | – | – | – | – | – | – | – | – | – |
| CN(c1ccc(-c2cc3cncnc3cc2O)nn1)[C@@H]1C[C@H]2CC[C@H](N2)[C@@H]1F [Compound 75A, 6-(6-(((1S,2S,3R,5R)-2-fluoro-8-azabicyclo[3.2.1]octan-3-yl)(methyl)amino)pyridazin-3-yl)quinazolin-7-ol] | 51 to 100 | 101 | 100 | 2.31 | 50.3 | 22 | 101 to 500 | – | – | – | – | – | – | – | – | – | – |
| Cc1nc2cc(-c3ccc(N(C)[C@H]4C[C@@H]5CC[C@@H](N5)[C@H]4F)nn3)c(O)cc2o1 [Compound 118B, 5-(6-(((1R,2R,3S,5S)-2-fluoro-8-azabicyclo[3.2.1]octan-3-yl)(methyl)amino)pyridazin-3-yl)-2-methylbenzo[d]oxazol-6-ol] | – | – | – | – | – | – | – | – | – | – | – | – | – | – | – | – | 0.01 to 15 |
| CN(c1ccc(-c2cc(F)c(-c3ccn(C)c(=O)c3)cc2O)nn1)[C@H]1C[C@@H]2CC(F)(F)[C@H](C1)N2 [Compound 22B, 4-(4-(6-(((1R,3S,5S)-6,6-difluoro-8-azabicyclo[3.2.1]octan-3-yl)(methyl)amino)pyridazin-3-yl)-2-fluoro-5-hydroxyphenyl)-1-methylpyridin-2(1H)-one] | 51 to 100 | 88 | 95 | 2.83 | 87.7 | 31 | – | – | – | – | – | – | – | – | – | – | – |
| Cc1nc2cc(-c3ccc(N(C)[C@@H]4C[C@H]5CC[C@H](N5)[C@@H]4F)nn3)c(O)cc2o1 [Compound 118A, 5-(6-(((1S,2S,3R,5R)-2-fluoro-8-azabicyclo[3.2.1]octan-3-yl)(methyl)amino)pyridazin-3-yl)-2-methylbenzo[d]oxazol-6-ol] | – | – | – | – | – | – | – | – | – | – | – | – | – | – | – | – | 16 to 50 |

— patent US12509460B2 (Skyhawk Therapeutics, Inc., priority 2019, dated 2025)
